Experiments:
MCF-7 cell line cells [1] = assay: Whole cell MALDI TOF MS imaging of live cell microarray reacted with apoptosis-inducing compounds; assay type: cell-based, human; details: MCF-7 cells, 24 hours; etoposide 1 mM, camptothecin 10 μM, andrographolide 100 μM, 500 μM and 1 mM; FIG. 39E
Method: The live cell microarray was fabricated as follows: a sterile 12-well silicone gasket was affixed to a top surface of a sterile APEX™ glass microwell plate, as schematically depicted in FIG. 15A and 1×DMEM cell culture medium supplemented with 10% FBS and 1% of Penicillin/Streptomycin was dispensed into each well of the fabricated 12-chamber cell culture device. Several hundred of MCF-7 cell line cells were seeded into each of the 12 wells and the cells were grown to […] density on the microwell plate within 48 hrs using a standard cell culture protocol. The fabricated live cell microarray thus comprised 12 reactive sites defined by the dimensions of the silicone gasket, each reactive site measuring approximately 7.5 mm×7.5 mm and containing approximately 5×10^5 live cells.
The live cell microarray fabricated as described in the previous Example was utilized to measure response of the MCF-7 cell line cells to several apoptosis-inducing compounds, which included etoposide, camptothecin and andrographolide. In addition, the live cell microarray was utilized to measure response of the MCF-7 cells to the same compound (andrographolide) provided in three different concentrations.
Stock solutions of the three compounds listed above were prepared in DMSO and stored at 4° C. or at −20° C. The compounds were diluted with the DMEM cell culture medium to the final concentrations of 1 mM (etoposide), 10 μM (camptothecin) and 100 μM, 500 μM and 1 mM (andrographolide) immediately before use. The original cell growth medium within the individual wells of the silicone gasket was removed by pipetting and replaced with approximately 250 μL of a cell growth medium supplemented with a specific compound. FIG. 39A schematically depicts a layout of the cell microarray. […]
The reacted cell microarray was measured by MALDI TOF MS in the linear mid-mass positive mode as described previously. […]

[2] = Cell counting (Trypan blue, automated cell counter) on composite microbead-microwell live cell microarray; details: human, MCF-7 cells on a microbead-microwell array plate
MCF-7 cell line cells [3] = assay: as above; details: MCF-7 cells, 24 hours, cell growth medium supplemented with etoposide released from the ion exchange beads; Trypan blue
MCF-7 cells = assay: Difference whole cell mass spectrometry for detection of spectral changes due to apoptosis; assay type: cell-based, human; details: 24 hrs incubation, FIG. 35
Method: The human breast cancer cell line MCF-7 cells were grown in Gibco® DMEM medium on a 6-well clear polystyrene cell culture plate (BD Falcon). The cells were grown according to the manufacturer's protocol to approximately 75% confluency. At this point several apoptosis-inducing compounds were added to the individual wells and the cells were further incubated for 24 hrs. Both live adherent cells and dead cells detached from the surface were collected from the individual wells of the cell culture plate and the cell viability count was performed on Countless® automated cell counter (Life Technologies) per manufacturer's protocol.
The cells for WCMS analysis were prepared as described in the previous examples. The cell concentration was approximately 1,000 cells per μL.
Whole cell MALDI TOF MS spectra were acquired from the control (untreated) and treated cell populations using instrument parameters described in the previous examples. […] The bottom spectrum represents a difference mass spectrum produced by subtracting the control spectrum from the Etoposide-treated spectrum.

MCF-7 cell line cells [4] = assay: Optical imaging of cell density and morphology on composite microbead-microwell live cell microarray; assay type: cell-based, human; details: MCF-7 cells, 24 hours, optical microscope, FIG. 41A/41B
Text: In this Example, the release of etoposide from the beads into the cell culture medium occurred primarily via diffusion mechanism, although other methods, such as photorelease of active compounds from individual beads may be also utilized due to the fact that the solid support used for the microarray fabrication is sufficiently transparent in the UV-visible range.
Optical imaging: the multi-well gasket was separated from the microwell array plate, the surface of the plate rinsed with 1×PBS buffer and the microwell plate was imaged using an optical microscope to determine the cell density and cell morphology. A representative image acquired from an area of the microwell plate, which contained the cells exposed to the drug-free DMEM medium, is shown in FIG. 41A. A representative image acquired from an area of the microwell plate, which contained the cells exposed to the etoposide-containing DMEM medium, is shown in FIG. 41B.

| Structure (SMILES) | intensity of peaks in the 7,891-7,977 m/z spectral region compared to untreated cells (MCF-7 cell line cells [1]) | viability at 24 h [2] | live cells (MCF-7 cell line cells [3]) | total cells (MCF-7 cell line cells [3]) | difference mass spectrum, treated minus control (MCF-7 cells) | density of adherent cells, drug-free vs etoposide-containing DMEM medium (MCF-7 cell line cells [4]) |
| --- | --- | --- | --- | --- | --- | --- |
| C=C1CC[C@@H]2[C@](C)(CO)[C@H](O)CC[C@@]2(C)[C@@H]1C/C=C1/C(=O)OC[C@H]1O [andrographolide] | significantly greater intensity | – | – | – | – | – |
| CC[C@@]1(O)C(=O)OCc2c1cc1n(c2=O)Cc2cc3ccccc3nc2-1 [camptothecin] | significantly greater intensity | – | – | – | – | – |
| COc1cc([C@@H]2c3cc4c(cc3[C@@H](O[C@@H]3O[C@@H]5CO[C@@H](C)O[C@H]5[C@H](O)[C@H]3O)[C@H]3COC(=O)[C@H]23)OCO4)cc(OC)c1O [etoposide] | significantly greater intensity | 44% | 2.1×10^5 | 4.7×10^5 | reveals multiple spectral features | significantly greater density of adherent cells was observed for the cells grown in the drug-free medium |
